Source: US8796415B2, “Inhibitors of guanine exchange factors and their use as anticancer drugs” (Centre National de la Recherche Scientifique, priority 2009, dated 2014)
Ends that are not written are not given here.

What was measured:
Trio DH2-PH2 [1] = molecular target: T1, Trio DH2-PH2 (Homo sapiens, UniProt O75962); conditions: Schmidt et al., 2002; cited from earlier work
T1 construct: made in house

Lbc = molecular target: T2, Lbc (Homo sapiens, UniProt Q12802); assay: mant-GTP fluorescence kinetics specificity assay, RhoA/Lbc; assay type: biochemical; conditions: peptide 20 μM, 0.5 μM GEF, 1 μM RhoA
T2 construct: GST-Dbl (DH-PH domain), GST-Lbc (DH-PH), GST-p63RhoGEF (DH domain) and GST-RhoG were purified as described previously; GST (N); made in house
T2 sequence (Q12802 1994-2333): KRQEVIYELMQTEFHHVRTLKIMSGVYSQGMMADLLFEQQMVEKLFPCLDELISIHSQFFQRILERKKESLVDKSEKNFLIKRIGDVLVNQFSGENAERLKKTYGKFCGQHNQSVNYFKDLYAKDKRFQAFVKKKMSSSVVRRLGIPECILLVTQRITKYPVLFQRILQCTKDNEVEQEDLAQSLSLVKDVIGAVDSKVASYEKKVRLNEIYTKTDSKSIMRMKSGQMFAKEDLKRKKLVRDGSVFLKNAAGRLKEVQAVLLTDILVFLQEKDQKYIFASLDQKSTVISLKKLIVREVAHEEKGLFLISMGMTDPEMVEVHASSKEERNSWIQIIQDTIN
Procedure: (§1) Figures represent the comparison of TRIPE32G and TRIPT16M/L17S inhibition efficiency on different GTPase/RhoGEF systems, using 1 μM GTPase and 0.5 μM GEF as follows:
(§2) In each assay, the peptides were used at a concentration of 20 μM, corresponding to a 40 fold molar excess of inhibitor versus GEF. All fluorescence kinetics assays were performed using 1 μM mant-GTP. Results are expressed as Relative Fluorescence Units (RFU) versus time. The reaction performed in the absence of GEF reflects the spontaneous exchange activity of the GTPase.
(§3) Radioactive [3H]-GDP dissociation assays were performed as described (Schmidt et al., 2002). […] Inhibition efficiency is expressed as the ratio between [3H]-GDP-bound RhoA at 15 and 0 min. Apparent inhibition constants (Kiapp) of TRIP-like peptides were determined from kobs values obtained at increasing peptide concentrations using the above fluorescence nucleotide exchange assay. Kiapp was calculated from the hyperbolic fit of kobs values as a function of the inhibitor concentration as described (Zeeh et al., 2006). TRIP-like peptide specificity was assayed using mant-GTP fluorescence kinetics (λex=360 nm, λem=460 nm) in a FLX800 Microplate Fluorescence Reader (BioTek Instruments). […] The exchange reaction was initiated by addition of 1 μM RhoA or RhoG and monitored for 10 min.

Tgat = assay: mant-GTP fluorescence kinetics specificity assay, RhoA/Tgat; assay type: biochemical; conditions: peptide 20 μM, 0.5 μM Tgat, 1 μM RhoA, 1 μM mant-GTP
Procedure: as §1, §2, §3

[2] = tested on: Tgat-mediated RhoA activation; assay: RhoA activation assay (GST-RBD pull-down) in NIH3T3 cells stably expressing Tgat; assay type: cell-based; conditions: NIH3T3-Tgat cells transfected with GFP-tagged peptide
Procedure: The RhoA activation in NIH3T3-Tgat cells stably transfected with GFP, GFP-TRIPE32G or GFPTRIP T16M/L17S was assayed by the GST-RBD-pulldown assay as described in FIG. 2A.
The level of GTP-bound RhoA was measured by a GST pulldown assay as described (Schmidt et al., 2002). Briefly, cell lysates were incubated with glutathione beads coated with the recombinant Rho-binding domain (RBD) of the RhoA specific effector Rhotekin (Cytoskeleton Inc.).

Trio DH1-PH1 = molecular target: T3, Trio DH1-PH1 (Homo sapiens, UniProt O75962); assay: mant-GTP fluorescence kinetics specificity assay, RhoG/Trio DH1-PH1; assay type: biochemical; conditions: peptide 20 μM, 1 μM RhoG
T3 construct: Recombinant GST-Trio DH2-PH2, GST-Trio DH1-PH1, GST-Dbl (DH-PH domain); GST (N); made in house
Procedure: as §1, §2, §3

Trio DH2-PH2 [3] = molecular target: T1, Trio DH2-PH2; assay: [3H]-GDP dissociation assay on Trio DH2-PH2; assay type: biochemical; conditions: 0.15 μM GST-Trio DH2-PH2, 3 μM GST-TRIP inhibitors
Procedure: Each residue of the active core of TRIPα (amino acids 9-36; Schmidt et al., 2002) was mutated to alanine, except cysteines which were changed into serines. All TRIPα mutants were then tested for their inhibitory activity on Trio DH2-PH2 in [3H]-GDP dissociation assays. This analysis mapped two essential regions of TRIPα, amino acids 9-20 and 28-33, where single mutations were sufficient to impair inhibition (see table 3).
The inventors next reasoned that peptides that would bind stronger to the GEF domain may also be better at inhibiting its activity. […] These clones were then produced as GST fusions and analyzed for their inhibition of Trio DH2-PH2, using the [3H]-GDP dissociation assay. […]
An aptamer library derived from TRIPα was created by PCR-based random mutagenesis of TRIPα inserted into the yeast two-hybrid vector pPC86. […] Selected peptides were then produced as GST-fusions and analyzed for their inhibition of Trio DH2-PH2 using the [3H]-GDP dissociation assay.
Radioactive [3H]-GDP dissociation assays were performed as described (Schmidt et al., 2002). […] Inhibition efficiency is expressed as the ratio between [3H]-GDP-bound RhoA at 15 and 0 min. Apparent inhibition constants (Kiapp) of TRIP-like peptides were determined from kobs values obtained at increasing peptide concentrations using the above fluorescence nucleotide exchange assay. […]

Dbl = assay: mant-GTP fluorescence kinetics specificity assay, RhoA/Dbl; assay type: biochemical; conditions: peptide 20 μM, 1 μM RhoA
Procedure: as §1, §2, §3

p63RhoGEF = molecular target: T4, p63RhoGEF (Homo sapiens, UniProt Q86VW2); assay: mant-GTP fluorescence kinetics specificity assay, RhoA/p63RhoGEF; assay type: biochemical; conditions: peptide 20 μM, 0.5 μM GEF, 1 μM RhoA
T4 construct: GST-p63RhoGEF (DH domain) and GST-RhoG were purified as described previously; GST (N); made in house
Procedure: as §1, §2, §3

Chain of Dbl (P10911 495-809 limits assumed): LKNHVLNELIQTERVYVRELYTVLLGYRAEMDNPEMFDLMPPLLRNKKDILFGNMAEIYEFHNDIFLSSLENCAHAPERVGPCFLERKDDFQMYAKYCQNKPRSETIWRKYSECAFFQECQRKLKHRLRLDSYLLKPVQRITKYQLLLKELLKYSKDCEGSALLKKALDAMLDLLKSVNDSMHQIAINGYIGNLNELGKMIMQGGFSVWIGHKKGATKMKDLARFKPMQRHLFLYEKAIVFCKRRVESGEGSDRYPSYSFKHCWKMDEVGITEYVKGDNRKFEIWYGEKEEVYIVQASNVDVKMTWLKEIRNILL
T4 sequence (Q86VW2 160-336 limits assumed): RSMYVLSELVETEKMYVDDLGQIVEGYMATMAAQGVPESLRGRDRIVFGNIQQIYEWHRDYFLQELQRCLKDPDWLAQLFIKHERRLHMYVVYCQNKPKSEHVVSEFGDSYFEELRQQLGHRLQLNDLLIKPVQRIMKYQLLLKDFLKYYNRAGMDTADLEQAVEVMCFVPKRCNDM

Row | effect on exchange activity of Lbc/RhoA (Lbc) | effect on exchange activity of Trio DH1-PH1/RhoG (Trio DH1-PH1) | Inhibition efficiency on Trio DH2-PH2 compared to TRIPα (Trio DH2-PH2 [3]) | effect on exchange activity of p63RhoGEF/RhoA (p63RhoGEF) | Substance | inhibition of Trio DH2-PH2 activation of RhoA (Trio DH2-PH2 [1]) | inhibition of Tgat exchange activity on RhoA (Tgat) | inhibition of Tgat-mediated activation of RhoA in cells [2] | effect on exchange activity of Dbl/RhoA (Dbl)
1 | – | – | – | – | AREGADGAICGYNLATLVMLGPSERVFCPLCEPCSSDIYELM [TRIPα] | inhibits its activation of RhoA both in vitro and in intact cells | – | – | –
2 | no effect | no effect | highest inhibition on Trio DH2-PH2 | no effect | GST-TRIPE32G (AREGADGAICGYNLATLVMLGPSERVFCPLCGPCSSDIYELM; cysteine pairing not given here; also: GST fusion) | – | fully inhibited | more efficient than TRIPT16M/L17S | no effect
3 | no effect | no effect | highest inhibition on Trio DH2-PH2 | no effect | GST-TRIPT16M/L17S | – | fully inhibited | TRIPE32G was more efficient than TRIPT16M/L17S | no effect
